Assay results published in patent US20100144755A1 (Glaxo Group Limited, priority 2006, published 2010).
Counter-ions that a name gives are not always drawn.

What was measured:
[1] = system: influx of neutrophils to the lung in LPS-challenged rats; experiment: Rat LPS neutrophilia model; type: in vivo; settings: LPS aerosol, intratracheal dosing, in at least one of the range of conditions tested, significance p<0.05
How it was run: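 Compound given intratracheally (200 ul suspension or dry powder via microsprayer) to isoflurane-anesthetized rats 15 min–24 h before 15 min LPS aerosol (100 ug/ml). Lavage 4 h post-challenge; neutrophils from differential counts. % inhibition versus no-compound controls at a given concentration and pretreat time.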

[2] = system: TNF-stimulated IL8 production by human neutrophils; experiment: TNF-stimulated IL-8 production from human neutrophils; type: cell-based; settings: Neutrophil, TNF 100 ng/ml, about 20 hrs, bounds reflect the top concentration screened, for 202(c) and 120 a range over multiple runs with ends given as 'greater than';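 note: IL-8 in cell-free supernatant quantified by sandwich ELISA, inhibition calculated against a compound-free control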
Procedure: TNF-Stimulated IL-8 Production from Human Neutrophils
The effect of test compounds on TNF-stimulated IL8 production by human neutrophils is measured as follows. Neutrophils are prepared from blood obtained from consenting donors, using standard methods. Blood is collected in heparinized syringes and layered over histopaque (30 ml/20 ml). Following centrifugation, the red cell pellet is resuspended in PBS and purified over a dextran gradient. […] Cells are added (0.5-1 ml) to 48 well plates already containing compound at 1000× final concentration in neat DMSO or 10% DMSO in RPMI1640 with 10% FBS. TNF (final concentration 100 ng/ml) is used as the stimulus. Cells incubated for approximately 20 hrs at 37° C., 5% CO2. Levels of IL-8 in the cell free supernatant are determined by sandwich ELISA, and inhibition relative to a control with DMPO but no compound is calculated.

| SMILES | melting point | inhibition of neutrophilia [1] | IC50 [2] |
| --- | --- | --- | --- |
| CCCNC(=O)c1ccc(C)c(-c2nc(N(C)CCCN(C)C)nc3c2ccc(=O)n3-c2c(F)cccc2F)c1 [Example 104, 3-{8-(2,6-difluorophenyl)-2-[[3-(dimethylamino)propyl](methyl)amino]-7-oxo-7,8-dihydropyrido[2,3-d]pyrimidin-4-yl}-4-methyl-N-propylbenzamide] | 104 to 109 °C | statistically significant inhibition |  |
| CCCNC(=O)c1ccc(C)c(-c2nc(NCCN(C)C(=O)OC(C)(C)C)nc3c2ccc(=O)n3-c2c(F)cccc2F)c1 [Example 106, 1,1-dimethylethyl{2-[(8-(2,6-difluorophenyl)-4-{2-methyl-5-[(propylamino)carbonyl]phenyl}-7-oxo-7,8-dihydropyrido[2,3-d]pyrimidin-2-yl)amino]ethyl}methylcarbamate] | 115 to 118 °C |  |  |
| Cc1ccc(C(=O)NC2CC2)cc1-c1nc(NC2CC(C)(C)NC(C)(C)C2)nc2c1ccc(=O)n2-c1c(F)cccc1F [21(c)] | 326.3 to 327.9 °C |  |  |
| Cc1ccc(C(=O)NCCc2ccccc2)cc1-c1nc(NCCN(C)C(=O)OC(C)(C)C)nc2c1ccc(=O)n2-c1c(F)cccc1F [202(c), 1,1-dimethylethyl(2-{[8-(2,6-difluorophenyl)-4-(2-methyl-5-{[(2-phenylethyl)amino]carbonyl}phenyl)-7-oxo-7,8-dihydropyrido[2,3-d]pyrimidin-2-yl]amino}ethyl)methylcarbamate] |  |  | 10 to 100 nM |
| Cc1ccc(NC(=O)c2cc[nH]n2)cc1-c1nc(NC(CO)CO)nc2c1ccc(=O)n2-c1c(F)cccc1F [Example 53, N-[3-8-(2,6-difluorophenyl-2-{[2-hydroxy-1-(hydroxymethyl)ethyl]amino}-7-oxo-7,8-dihydropyrido[2,3-d]pyrimidin-4-yl)-4-methylphenyl]-1H-pyrazole-3-carboxamide trifluoroacetate] |  |  | > 100 nM |
| CCN(CC)CCCNc1nc(-c2cccc(C(=O)Nc3ccc(F)cc3)c2C)c2ccc(=O)n(-c3c(F)cccc3F)c2n1 [Example 152, 3-[2-{[3-(diethylamino)propyl]amino}-8-(2,6-difluorophenyl)-7-oxo-7,8-dihydropyrido[2,3-d]pyrimidin-4-yl]-N-(4-fluorophenyl)-2-methylbenzamide] |  |  | > 100 nM |
| CCN(CC)CCCNc1nc(-c2cccc(C(=O)NCC#N)c2C)c2ccc(=O)n(-c3c(F)cccc3F)c2n1 [Example 156, N-(cyanomethyl)-3-[2-{[3-(diethylamino)propyl]amino}-8-(2,6-difluorophenyl)-7-oxo-7,8-dihydropyrido[2,3-d]pyrimidin-4-yl]-2-methylbenzamide] |  |  | > 100 nM |
| Cc1ccc(NC(=O)c2cn(C)cn2)cc1-c1nc(NC(CO)CO)nc2c1ccc(=O)n2-c1c(F)cccc1F [Example 51, N-[3-(2,6-difluorophenyl)-2-{[2-hydroxy-1-(hydroxymethyl)ethyl]amino}-7-oxo-7,8-dihydropyrido[2,3-d]pyrimidin-4-yl)-4-methylphenyl]-1-methyl-1H-imidazole-4-carboxamide trifluoroacetate] |  |  | > 100 nM |
| CCN(CC)CCCNc1nc(-c2ccc(C(=O)Nc3ccc(F)cc3)cc2)c2ccc(=O)n(-c3c(F)cccc3F)c2n1 [Example 191, 4-[2-{[3-(diethylamino)propyl]amino}-8-(2,6-difluorophenyl)-7-oxo-7,8-dihydropyrido[2,3-d]pyrimidin-4-yl]-N-(4-fluorophenyl)benzamide] |  |  | > 100 nM |
| CCN(CC)CCCNc1nc(-c2cccc(C(=O)O)c2)c2ccc(=O)n(-c3c(F)cccc3F)c2n1 [193(a), 3-[2-{[3-(diethylamino)propyl]amino}-8-(2,6-difluorophenyl)-7-oxo-7,8-dihydropyrido[2,3-d]pyrimidin-4-yl]benzoic acid] |  |  | > 100 nM |
| CCN(CC)CCCNc1nc(-c2ccc(C(=O)NC(C)C)cc2)c2ccc(=O)n(-c3c(F)cccc3F)c2n1 [Example 189, 4-[2-{[3-(diethylamino)propyl]amino}-8-(2,6-difluorophenyl)-7-oxo-7,8-dihydropyrido[2,3-d]pyrimidin-4-yl]-N-(1-methylethyl)benzamide] |  |  | > 100 nM |
| Cc1ccc(NC(=O)c2cccs2)cc1-c1nc(NC2CCNCC2)nc2c1ccc(=O)n2-c1c(F)cccc1F [7(d), N-{3-[8-(2,6-difluorophenyl)-7-oxo-2-(4-piperidinylamino)-7,8-dihydropyrido[2,3-d]pyrimidin-4-yl]-4-methylphenyl}-2-thiophenecarboxamide] |  |  | > 100 nM |
| CCN(CC)CCCNc1nc(-c2cc(C(=O)O)ccc2C)c2ccc(=O)n(-c3c(F)cccc3F)c2n1 [118(a), 3-[2-{[3-(diethylamino)propyl]amino}-8-(2,6-difluorophenyl)-7-oxo-7,8-dihydropyrido[2,3-d]pyrimidin-4-yl]-4-methylbenzoic acid] |  |  | > 100 nM |
| Cc1ccc(C(=O)NCC(C)(C)C)cc1-c1nc(N2CCC(N3CCC(C)CC3)CC2)nc2c1ccc(=O)n2-c1c(F)cccc1F [Example 171, 3-[8-(2,6-difluorophenyl)-2-(4-methyl-1,4′-bipiperidin-1′-yl)-7-oxo-7,8-dihydropyrido[2,3-d]pyrimidin-4-yl]-N-(2,2-dimethylpropyl)-4-methylbenzamide] |  |  | > 100 nM |
| Cc1ccc(N)cc1-c1nc(NC2CC(C)(C)NC(C)(C)C2)nc2c1ccc(=O)n2-c1c(F)cccc1F [Example 110, 4-(5-amino-2-methylphenyl)-8-(2,6-difluorophenyl)-2-[(2,2,6,6-tetramethyl-4-piperidinyl)amino]pyrido[2,3-d]pyrimidin-7(8H)-one] |  |  | > 100 nM |
| Cc1ccc(C(=O)NCc2ccccc2)cc1-c1nc(NCc2ncc[nH]2)nc2c1ccc(=O)n2-c1c(F)cccc1F [116(c), 3-{8-(2,6-difluorophenyl)-2-[(1H-imidazol-2-ylmethyl)amino]-7-oxo-7,8-dihydropyrido[2,3-d]pyrimidin-4-yl}-4-methyl-N-(phenylmethyl)benzamide] | 185 to 190 °C (dec.) |  |  |
| Cc1ccc(NC(=O)c2cccs2)cc1-c1nc(NCc2ncc[nH]2)nc2c1ccc(=O)n2-c1c(F)cccc1F [Example 10, N-(3-{8-(2,6-difluorophenyl)-2-[(1H-imidazol-2-ylmethyl)amino]-7-oxo-7,8-dihydropyrido[2,3-d]pyrimidin-4-yl}-4-methylphenyl)-2-thiophenecarboxamide] |  |  | > 100 nM |
| Cc1ccc(C(=O)O)cc1-c1nc(N2CCC(N3CCC(C)CC3)CC2)nc2c1ccc(=O)n2-c1c(F)cccc1F [163(b), 3-[8-(2,6-difluorophenyl)-2-(4-methyl-1,4′-bipiperidin-1′-yl)-7-oxo-7,8-dihydropyrido[2,3-d]pyrimidin-4-yl]-4-methylbenzoic acid] |  |  | > 100 nM |
| Cc1ccc(NC(=O)c2ccc(Cl)nc2)cc1-c1nc(NC2CC(C)(C)NC(C)(C)C2)nc2c1ccc(=O)n2-c1c(F)cccc1F [Example 16, 6-chloro-N-(3-{8-(2,6-difluorophenyl)-7-oxo-2-[(2,2,6,6-tetramethyl-4-piperidinyl)amino]-7,8-dihydropyrido[2,3-d]pyrimidin-4-yl}-4-methylphenyl]-3-pyridinecarboxamide] |  |  | > 100 nM |
| Cc1ccc(NC(=O)CCNC(=O)CCC(=O)O)cc1-c1nc(NC(CO)CO)nc2c1ccc(=O)n2-c1c(F)cccc1F [Example 52, 4-[(3-{[3-(8-(2,6-difluorophenyl)-2-{[2-hydroxy-1-(hydroxymethyl)ethyl]amino}-7-oxo-7,8-dihydropyrido[2,3-d]pyrimidin-4-yl)-4-methylphenyl]amino}-3-oxopropyl)amino]-4-oxobutanoic acid trifluoroacetate] |  |  | > 100 nM |
| CCN(CC)CCCNc1nc(-c2cc(C(=O)N[C@H](C)C(C)C)ccc2C)c2ccc(=O)n(-c3c(F)cccc3F)c2n1 [Example 130, 3-[2-{[3-(diethylamino)propyl]amino}-8-(2,6-difluorophenyl)-7-oxo-7,8-dihydropyrido[2,3-d]pyrimidin-4-yl]-N-[(1R)-1,2-dimethylpropyl]-4-methylbenzamide] |  | statistically nonsignificant inhibition | > 10 nM |
| CCN(CC)CCCNc1nc(-c2cc(C(=O)N[C@@H](C)C(C)C)ccc2C)c2ccc(=O)n(-c3c(F)cccc3F)c2n1 [Example 131, 3-[2-{[3-(diethylamino)propyl]amino}-8-(2,6-difluorophenyl)-7-oxo-7,8-dihydropyrido[2,3-d]pyrimidin-4-yl]-N-[(1S)-1,2-dimethylpropyl]-4-methylbenzamide] |  |  | > 10 nM |
| Cc1ccc(NC(=O)c2ccc(Cl)nc2)cc1-c1nc(N2CCC(N)CC2)nc2c1ccc(=O)n2-c1c(F)cccc1F [Example 15, N-{3-[2-(4-amino-1-piperidinyl)-8-(2,6-difluorophenyl)-7-oxo-7,8-dihydropyrido[2,3-d]pyrimidin-4-yl]-4-methylphenyl}-6-chloro-3-pyridinecarboxamide] |  |  | > 100 nM |
| Cc1c(F)cc(C(=O)NC2CC2)cc1-c1nc(NC(CO)CO)nc2c1ccc(=O)n2-c1c(F)cccc1F [18(e), N-cyclopropyl-3-(8-(2,6-difluorophenyl)-2-{[2-hydroxy-1-(hydroxymethyl)ethyl]amino}-7-oxo-7,8-dihydropyrido[2,3-d]pyrimidin-4-yl)-5-fluoro-4-methylbenzamide] | 214.2 to 217.5 °C |  |  |
| CCN(CC)CCCNc1nc(-c2cccc(C(=O)NC3CC3)c2C)c2ccc(=O)n(-c3c(F)cccc3F)c2n1 [Example 155, N-cyclopropyl-3-[2-{[3-(diethylamino)propyl]amino}-8-(2,6-difluorophenyl)-7-oxo-7,8-dihydropyrido[2,3-d]pyrimidin-4-yl]-2-methylbenzamide] |  |  | > 100 nM |
